# Assay results: patent US10287266B2, “Compounds and compositions for inhibiting the activity of SHP2” (NOVARTIS AG, priority 2015, dated 2019)
# Biological target: T1, SHP2 (Homo sapiens, UniProt Q06124)
# T1 sequence (Q06124 1-593): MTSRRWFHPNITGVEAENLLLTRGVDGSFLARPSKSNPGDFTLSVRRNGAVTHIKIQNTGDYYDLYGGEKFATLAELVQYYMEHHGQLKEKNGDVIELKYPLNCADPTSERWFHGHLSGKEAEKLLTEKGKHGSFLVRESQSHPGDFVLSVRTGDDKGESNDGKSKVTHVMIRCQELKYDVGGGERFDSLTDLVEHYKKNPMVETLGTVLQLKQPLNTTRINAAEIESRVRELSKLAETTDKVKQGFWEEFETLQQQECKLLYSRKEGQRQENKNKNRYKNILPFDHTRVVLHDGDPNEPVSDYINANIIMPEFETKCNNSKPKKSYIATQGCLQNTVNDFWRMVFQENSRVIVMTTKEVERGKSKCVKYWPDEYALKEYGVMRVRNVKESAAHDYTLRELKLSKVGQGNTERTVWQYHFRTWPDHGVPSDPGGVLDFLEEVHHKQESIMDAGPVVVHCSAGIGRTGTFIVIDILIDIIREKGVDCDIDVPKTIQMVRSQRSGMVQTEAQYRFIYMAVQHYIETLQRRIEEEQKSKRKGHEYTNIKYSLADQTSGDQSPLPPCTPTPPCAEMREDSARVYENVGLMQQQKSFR
# Assay: SHP2 Allosteric Inhibition Assay
# Type: biochemical
# Conditions: 0.5 nM SHP2 activated with 0.5 μM peptide IRS1_pY1172(dPEG8)pY1222; surrogate substrate DiFMUP, prompt fluorescence, 25° C.
# Excerpt: SHP2 Allosteric Inhibition Assay
# SHP2 is allosterically activated through binding of bis-tyrosyl-phorphorylated peptides to its Src Homology 2 (SH2) domains. The latter activation step leads to the release of the auto-inhibitory interface of SHP2, which in turn renders the SHP2 protein tyrosine phosphatase (PTP) active and available for substrate recognition and reaction catalysis. The catalytic activity of SHP2 was monitored using the surrogate substrate DiFMUP in a prompt fluorescence assay format.
# After 30-60 minutes incubation at 25° C., the surrogate substrate DiFMUP (Invitrogen, cat# D6567) was added to the reaction and incubated at 25° C. for 30 minutes. […] The inhibitor dose response curves were analyzed using normalized IC50 regression curve fitting with control based normalization.
row,SMILES,AC50
1,"CC1(CN)CCN(c2cnc(Sc3ccc(N)cc3Cl)cn2)CC1 [Example 9, 4-((5-(4-(aminomethyl)-4-methylpiperidin-1-yl)pyrazin-2-yl)thio)-3-chloroaniline]",30.6 nM
2,Cc1cccc(Sc2cnc(N3CCC4(CCC[C@H]4N)CC3)cn2)c1 [Example 64],48.2 nM
3,N[C@@H]1CCCC12CCN(c1cnc(Sc3ccncc3)cn1)CC2 [Example 89],107 nM
4,"CC1(CN)CCN(c2cnc(Sc3ccnc(N)c3Cl)cn2)CC1O (single isomer, unassigned) [Example 51]",72.3 nM
5,N[C@@H]1CCCC12CCN(c1cnc(Sc3ccc(OC(F)(F)F)cc3)cn1)CC2 [Example 88],82.3 nM
6,CC(C)(C)c1cccc(Sc2cnc(N3CCC4(CCC[C@@H]4N)CC3)cn2)c1 [Example 127],44.9 nM
7,"NC1=NC2(CCN(c3cnc(Sc4ccnc(Cl)c4Cl)cn3)CC2)CO1 [Example 4, 8-(5-((2,3-dichloropyridin-4-yl)thio)pyrazin-2-yl)-3-oxa-1,8-diazaspiro[4.5]dec-1-en-2-amine]",17.4 nM
8,Nc1cc(Sc2cnc(N3CCC4(CC3)COC[C@H]4N)cn2)c(Cl)c(Cl)n1 [Example 24],10.4 nM
9,N[C@@H]1CCCC12CCN(c1cnc(Sc3cccc(CN4CCOCC4)c3)cn1)CC2 [Example 94],39 nM
10,N#Cc1cccc(Sc2cnc(N3CCC4(CCC[C@H]4N)CC3)cn2)c1 [Example 80],210 nM
11,CO[C@H]1C[C@@H](N)C2(CCN(c3cnc(Sc4ccnc(N)c4Cl)cn3)CC2)C1 [Example 17],6.2 nM
12,"CC1(CN)CCN(c2cnc(Sc3ccnc(N)c3Cl)cn2)CC1O (single isomer, unassigned) [Example 52]",791 nM
13,Nc1ccccc1Sc1cnc(N2CCC3(CCC[C@H]3N)CC2)cn1 [Example 68],968 nM
14,N[C@@H]1CCCC12CCN(c1cnc(Sc3ccc(C(F)(F)F)cc3)cn1)CC2 [Example 87],235 nM
15,Nc1nccc(Sc2cnc(N3CCC4(CC3)COC[C@H]4N)cn2)c1Cl [Example 16],6.1 nM
16,Nc1nccc(Sc2cnc(N3CCC(N)(CO)CC3)cn2)c1Cl [Example 54],381 nM
17,COc1ccccc1Sc1cnc(N2CCC3(CCC[C@H]3N)CC2)cn1 [Example 69],41.8 nM
18,N[C@@H]1COCC12CCN(c1cnc(Sc3cccnc3C(F)(F)F)cn1)CC2 [Example 47],56 nM
19,Nc1nccc(Sc2cnc(N3CCC4(CC3)C[C@H](F)C[C@H]4N)cn2)c1Cl [Example 10],3.9 nM
20,COc1cccc(Sc2cnc(N3CCC4(CCC[C@H]4N)CC3)cn2)c1 [Example 74],37.6 nM
21,CC(=O)c1cccc(Sc2cnc(N3CCC4(CCC[C@H]4N)CC3)cn2)c1 [Example 119],138 nM
22,N[C@@H]1C[C@H](O)CC12CCN(c1cnc(Sc3ccnc(Cl)c3Cl)cn1)CC2 [Example 20],8.7 nM
23,CCCC1(N)CCN(c2cnc(Sc3ccnc(N)c3Cl)cn2)CC1 [Example 42],31.3 nM
24,C[C@H]1C[C@@H](N)C2(CCN(c3cnc(Sc4cc(N)nc(Cl)c4Cl)cn3)CC2)C1 [Example 60],35.1 nM
25,N[C@@H]1CCCC12CCN(c1cnc(Sc3cccc(NC(=O)C4CC4)c3)cn1)CC2 [Example 96],77.7 nM

row,SMILES,AC50
1,N[C@@H]1CCCC12CCN(c1cnc(Sc3cccc(Br)c3)cn1)CC2 [Example 82],81.1 nM
2,N[C@@H]1CCCC12CCN(c1cnc(Sc3cccc(C4CC4)c3)cn1)CC2 [Example 84],33.9 nM
3,N[C@@H]1CCCC12CCN(c1cnc(Sc3cccc(Cl)c3F)cn1)CC2 [Example 93],89.3 nM
4,Nc1nccc(Sc2cnc(N3CCC4(CC3)C[C@H](O)C[C@H]4N)cn2)c1Cl [Example 11],4.1 nM
5,CCC1(CN)CCN(c2cnc(Sc3ccnc(N)c3Cl)cn2)CC1 [Example 18],8.2 nM
6,C[C@@H]1OCC2(CCN(c3cnc(Sc4cccc(O)c4)cn3)CC2)[C@@H]1N [Example 118],57 nM
7,Cc1ccccc1Sc1cnc(N2CCC3(CCC[C@H]3N)CC2)cn1 [Example 121],44.9 nM
8,CC1(O)C[C@@H](N)C2(CCN(c3cnc(Sc4ccnc(N)c4Cl)cn3)CC2)C1 (some centres unmarked) [Example 41],28.2 nM
9,Nc1nccc(Sc2cnc(N3CCC4(CC3)CC(F)(F)C[C@H]4N)cn2)c1Cl [Example 56],23.8 nM
10,"CC1(N)CCN(c2cnc(Sc3cccnc3C(F)(F)F)cn2)CC1 [Example 6, 4-methyl-1-(5-((2-(trifluoromethyl)pyridin-3-yl)thio)pyrazin-2-yl)piperidin-4-amine]",127 nM
11,N[C@@H]1CCCC12CCN(c1cnc(Sc3cccc(Cl)c3)cn1)CC2 [Example 77],279 nM
12,Nc1nccc(Sc2cnc(N3CCC4(CC3)COCCN4)cn2)c1Cl [Example 53],215 nM
13,Nc1nccc(Sc2cnc(N3CCC4(CCCN4)CC3)cn2)c1Cl [Example 48],63.4 nM
14,Nc1cc(Sc2cnc(N3CCC4(CC3)C[C@H](F)C[C@H]4N)cn2)c(Cl)c(Cl)n1 [Example 61],145 nM
15,N[C@@H]1CCCC12CCN(c1cnc(Sc3ccc(Br)c(Cl)c3)cn1)CC2 [Example 91],666 nM
16,CC1(CN)CCN(c2cnc(Sc3ccnc(N)c3Cl)cn2)CC1 [Example 25],10.7 nM
17,CC(C)c1ccccc1Sc1cnc(N2CCC3(CCC[C@H]3N)CC2)cn1 [Example 63],44.6 nM
18,COC(=O)C1(CN)CCN(c2cnc(Sc3ccnc(N)c3Cl)cn2)CC1 [Example 44],45.7 nM
19,N[C@@H]1COCC12CCN(c1cnc(Sc3ccncc3C(F)(F)F)cn1)CC2 [Example 49],66.1 nM
20,CCCC1(CN)CCN(c2cnc(Sc3ccnc(N)c3Cl)cn2)CC1 [Example 31],17.6 nM
21,CC1(CN)CCN(c2cnc(Sc3cc(N)nc(Cl)c3Cl)cn2)CC1 [Example 59],155 nM
22,Nc1cc(Sc2cnc(N3CCC4(CC3)C[C@H](O)C[C@H]4N)cn2)c(Cl)c(Cl)n1 [Example 15],6 nM
23,CC(C)c1ccccc1Sc1cnc(N2CCC3(CCC[C@@H]3N)CC2)cn1 [Example 124],98 nM
24,N[C@@H]1CCCC12CCN(c1cnc(Sc3cccc(C(F)(F)F)c3)cn1)CC2 [Example 85],52.8 nM
25,C[C@H]1C[C@@H](N)C2(CCN(c3cnc(Sc4ccnc(N)c4Cl)cn3)CC2)C1 [Example 14],6 nM
